Experimental data published in patent US7192906B2, “Substituted pyrazole derivatives, production process thereof, and herbicide compositions containing the derivatives” (SDS Biotech K.K., priority 2001, dated 2007).

system: Setaria viridis; experiment: Test Example 2 upland soil treatment; type: in vivo; settings: Table 5, upland soil treatment, index 0-5
Description: (§1) A plastic pot of 130 cm^2 was filled with upland soil. Subsequently, weed seeds of Setaria viridis, Digitaria adscendens, Chenopodium album and Stellaria media, and crop seeds of soybean (Glycine max) and wheat (Triticum aestivum), were sowed and covered with soil of about 1 cm thickness. On the next day after the sowing, the wettable powder prepared in Formulation Example 1 was diluted with water such that the amount of the active ingredient became 1 kg per hectare, and then uniformly applied to the soil surface. On the 21st day after the application, observation and evaluation were carried out according to the aforesaid criteria.
(§2) Herbicidal activity was evaluated based on the following criteria.
(§3) • 5: herbicidal effect of not less than 90%, or phytotoxicity of 90% or more • 4: herbicidal effect of not less than 70% and less than 90%, or phytotoxicity of 70% or more and less than 90% • 3: herbicidal effect of not less than 50% and less than 70%, or phytotoxicity of 50% or more and less than 70% • 2: herbicidal effect of not less than 30% and less than 50%, or phytotoxicity of 30% or more and less than 50% • 1: herbicidal effect of not less than 10% and less than 30%, or phytotoxicity of 10% or more and less than 30% • 0: herbicidal effect of not less than 0% and less than 10%, or phytotoxicity of 0% or more and less than 10%

Row | SMILES | Herbicidal activity SV: Setaria viridis
1 | CNC(=O)C(Cn1cc(C)c(-c2cccc(C)c2)n1)=NOC [Compound 36] | 4 (herbicidal effect of not less than 70% and less than 90%, or phytotoxicity of 70% or more and less than 90%)
2 | CNC(=O)C(Cn1cc(C)c(-c2cccc(Cl)c2)n1)=NOC [Compound 46] | 5 (herbicidal effect of not less than 90%, or phytotoxicity of 90% or more)

system: Digitaria adscendens; experiment: Test Example 2 upland soil treatment; type: in vivo; settings: Table 5, upland soil treatment, index 0-5
Description: as §1, §2, §3

Row | SMILES | Herbicidal activity DA: Digitaria adscendens
3 | CNC(=O)C(Cn1cc(C)c(-c2cccc(C)c2)n1)=NOC [Compound 36] | 4 (herbicidal effect of not less than 70% and less than 90%, or phytotoxicity of 70% or more and less than 90%)
4 | CNC(=O)C(Cn1cc(C)c(-c2cccc(Cl)c2)n1)=NOC [Compound 46] | 5 (herbicidal effect of not less than 90%, or phytotoxicity of 90% or more)

system: Chenopodium album; experiment: Test Example 2 upland soil treatment; type: in vivo; settings: Table 5, upland soil treatment, index 0-5
Description: as §1, §2, §3

Row | SMILES | Herbicidal activity CA: Chenopodium album
5 | CNC(=O)C(Cn1cc(C)c(-c2cccc(C)c2)n1)=NOC [Compound 36] | 5 (herbicidal effect of not less than 90%, or phytotoxicity of 90% or more)
6 | CNC(=O)C(Cn1cc(C)c(-c2cccc(Cl)c2)n1)=NOC [Compound 46] | 5 (herbicidal effect of not less than 90%, or phytotoxicity of 90% or more)

system: Stellaria media; experiment: Test Example 2 upland soil treatment; type: in vivo; settings: Table 5, upland soil treatment, index 0-5
Description: as §1, §2, §3

Row | SMILES | Herbicidal activity SM: Stellaria media
7 | CNC(=O)C(Cn1cc(C)c(-c2cccc(C)c2)n1)=NOC [Compound 36] | 5 (herbicidal effect of not less than 90%, or phytotoxicity of 90% or more)
8 | CNC(=O)C(Cn1cc(C)c(-c2cccc(Cl)c2)n1)=NOC [Compound 46] | 5 (herbicidal effect of not less than 90%, or phytotoxicity of 90% or more)

system: Setaria viridis; experiment: Test Example 1 upland field foliage treatment; type: in vivo; settings: Table 4, upland field foliage treatment, index 0-5
Description: as §1, with “14th” for “next”, “plant leaf surfaces.” for “soil surface.”, “criteria described below.” for “aforesaid criteria.”
as §2, §3

Row | SMILES | Herbicidal activity SV: Setaria viridis
9 | CNC(=O)C(Cn1cc(C)c(-c2cccc(C)c2)n1)=NOC [Compound 36] | 4 (herbicidal effect of not less than 70% and less than 90%, or phytotoxicity of 70% or more and less than 90%)
10 | CNC(=O)C(Cn1cc(C)c(-c2cccc(Cl)c2)n1)=NOC [Compound 46] | 5 (herbicidal effect of not less than 90%, or phytotoxicity of 90% or more)

system: Digitaria adscendens; experiment: Test Example 1 upland field foliage treatment; type: in vivo; settings: Table 4, upland field foliage treatment, index 0-5
Description: as §1, with “14th” for “next”, “plant leaf surfaces.” for “soil surface.”, “criteria described below.” for “aforesaid criteria.”
as §2, §3

Row | SMILES | Herbicidal activity DA: Digitaria adscendens
11 | CNC(=O)C(Cn1cc(C)c(-c2cccc(C)c2)n1)=NOC [Compound 36] | 5 (herbicidal effect of not less than 90%, or phytotoxicity of 90% or more)
12 | CNC(=O)C(Cn1cc(C)c(-c2cccc(Cl)c2)n1)=NOC [Compound 46] | 5 (herbicidal effect of not less than 90%, or phytotoxicity of 90% or more)

system: Chenopodium album; experiment: Test Example 1 upland field foliage treatment; type: in vivo; settings: Table 4, upland field foliage treatment, index 0-5
Description: as §1, with “14th” for “next”, “plant leaf surfaces.” for “soil surface.”, “criteria described below.” for “aforesaid criteria.”
as §2, §3

Row | SMILES | Herbicidal activity CA: Chenopodium album
13 | CNC(=O)C(Cn1cc(C)c(-c2cccc(C)c2)n1)=NOC [Compound 36] | 5 (herbicidal effect of not less than 90%, or phytotoxicity of 90% or more)
14 | CNC(=O)C(Cn1cc(C)c(-c2cccc(Cl)c2)n1)=NOC [Compound 46] | 5 (herbicidal effect of not less than 90%, or phytotoxicity of 90% or more)

system: Stellaria media; experiment: Test Example 1 upland field foliage treatment; type: in vivo; settings: Table 4, upland field foliage treatment, index 0-5
Description: as §1, with “14th” for “next”, “plant leaf surfaces.” for “soil surface.”, “criteria described below.” for “aforesaid criteria.”
as §2, §3

Row | SMILES | Herbicidal activity SM: Stellaria media
15 | CNC(=O)C(Cn1cc(C)c(-c2cccc(C)c2)n1)=NOC [Compound 36] | 4 (herbicidal effect of not less than 70% and less than 90%, or phytotoxicity of 70% or more and less than 90%)
16 | CNC(=O)C(Cn1cc(C)c(-c2cccc(Cl)c2)n1)=NOC [Compound 46] | 5 (herbicidal effect of not less than 90%, or phytotoxicity of 90% or more)

system: wheat (Triticum aestivum); experiment: Test Example 2 upland soil treatment, crop phytotoxicity; type: in vivo; settings: Table 5, upland soil treatment, index 0-5
Description: as §1, §2, §3

Row | SMILES | Herbicidal activity (phytotoxicity) TA: Wheat (Triticum aestivum)
17 | CNC(=O)C(Cn1cc(C)c(-c2cccc(C)c2)n1)=NOC [Compound 36] | 0 (herbicidal effect of not less than 0% and less than 10%, or phytotoxicity of 0% or more and less than 10%)
18 | CNC(=O)C(Cn1cc(C)c(-c2cccc(Cl)c2)n1)=NOC [Compound 46] | 0 (herbicidal effect of not less than 0% and less than 10%, or phytotoxicity of 0% or more and less than 10%)

system: soybean (Glycine max); experiment: as above; type: in vivo; settings: Table 5, upland soil treatment, index 0-5
Description: as §1, §2, §3

Row | SMILES | Herbicidal activity (phytotoxicity) GM: Soybean (Glycine max)
19 | CNC(=O)C(Cn1cc(C)c(-c2cccc(C)c2)n1)=NOC [Compound 36] | 1 (herbicidal effect of not less than 10% and less than 30%, or phytotoxicity of 10% or more and less than 30%)
20 | CNC(=O)C(Cn1cc(C)c(-c2cccc(Cl)c2)n1)=NOC [Compound 46] | 1 (herbicidal effect of not less than 10% and less than 30%, or phytotoxicity of 10% or more and less than 30%)

system: wheat (Triticum aestivum); experiment: Test Example 1 upland field foliage treatment, crop phytotoxicity; type: in vivo; settings: Table 4, upland field foliage treatment, index 0-5
Description: as §1, with “14th” for “next”, “plant leaf surfaces.” for “soil surface.”, “criteria described below.” for “aforesaid criteria.”
as §2, §3

Row | SMILES | Herbicidal activity (phytotoxicity) TA: Wheat (Triticum aestivum)
21 | CNC(=O)C(Cn1cc(C)c(-c2cccc(C)c2)n1)=NOC [Compound 36] | 0 (herbicidal effect of not less than 0% and less than 10%, or phytotoxicity of 0% or more and less than 10%)
22 | CNC(=O)C(Cn1cc(C)c(-c2cccc(Cl)c2)n1)=NOC [Compound 46] | 0 (herbicidal effect of not less than 0% and less than 10%, or phytotoxicity of 0% or more and less than 10%)

system: soybean (Glycine max); experiment: as above; type: in vivo; settings: Table 4, upland field foliage treatment, index 0-5
Description: as §1, with “14th” for “next”, “plant leaf surfaces.” for “soil surface.”, “criteria described below.” for “aforesaid criteria.”
as §2, §3

Row | SMILES | Herbicidal activity (phytotoxicity) GM: Soybean (Glycine max)
23 | CNC(=O)C(Cn1cc(C)c(-c2cccc(C)c2)n1)=NOC [Compound 36] | 0 (herbicidal effect of not less than 0% and less than 10%, or phytotoxicity of 0% or more and less than 10%)
24 | CNC(=O)C(Cn1cc(C)c(-c2cccc(Cl)c2)n1)=NOC [Compound 46] | 0 (herbicidal effect of not less than 0% and less than 10%, or phytotoxicity of 0% or more and less than 10%)
